In patent publication US6498176B1, “3-(anilinomethylene) oxindoles as protein tyrosine kinase and protein serine/threonine kinase inhibitors” (SmithKlineBeecham Corporation, priority 1999, dated 2002) one finds IC50 data, which are given here for one molecule.

A value given as a limit tells only on which side of the number the result lay.

In test [1] the target is T1, c-fms intracellular domain (Homo sapiens, UniProt P07333).
T1 construct: The c-fms intracellular domain was expressed from a baculovirus expression system, as an amino-terminal GST fusion protein; GST (N); made in house; host or cells: baculovirus expression system
T1 sequence (P07333 539-972 limits assumed): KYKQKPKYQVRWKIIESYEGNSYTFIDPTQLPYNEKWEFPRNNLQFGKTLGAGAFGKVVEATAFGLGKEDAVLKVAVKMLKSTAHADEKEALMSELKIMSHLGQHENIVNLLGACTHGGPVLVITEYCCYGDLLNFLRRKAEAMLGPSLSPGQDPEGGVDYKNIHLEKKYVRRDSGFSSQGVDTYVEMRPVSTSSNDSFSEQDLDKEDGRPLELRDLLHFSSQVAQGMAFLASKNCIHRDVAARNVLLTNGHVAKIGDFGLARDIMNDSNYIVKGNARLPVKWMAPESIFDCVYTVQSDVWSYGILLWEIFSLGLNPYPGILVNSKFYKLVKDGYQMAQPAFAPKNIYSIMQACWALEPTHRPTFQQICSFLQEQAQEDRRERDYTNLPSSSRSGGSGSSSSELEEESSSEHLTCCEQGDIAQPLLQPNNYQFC
In words: c-fms protein kinase assay. Format: biochemical. Conditions: 1.7 μM ATP, 90 min at room temperature; read-out: Kinase inhibition c-fms (IC50). How it is done: c-fms protein kinase assays utilized the peptide substrate, biotin-[…]-NH2, as the phosphoryl group acceptor. The c-fms intracellular domain was expressed from a baculovirus expression system, as an amino-terminal GST fusion protein, and purified to homogeneity using Glutathione agarose from Sigma Chemical Co. Maximum activation of the enzyme was achieved by preactivation at room temperature for 120 min in the presence of 100 μM ATP and 15 mM MgCl2, This enzyme stock was diluted to 150 nM prior to using in the assay. Typically assays were performed in white, opaque, 96-well plates in a 45 ul assay volume including 15 ul 6% DMSO, with or without compounds, 15 ul of the preactivated, diluted enzyme, and 15 ul of a substrate mixture. Reactions contained 50 mM HEPES, pH 7.5, 1.7 μM ATP, 15 mM MgCl2, 3 μM peptide, 2.5 mM DTT, 50 mM NaCl and 0.15 uCi/assay [^32P]ATP. The controls were reactions in the presence (negative controls) or absence (positive controls) of 50 mM EDTA. Reactions were allowed to proceed for 90 min at room temperature. The reaction products were quantified using Scintillation Proximity technolgy. […] Plates were sealed and counted in a Packard Topcount scintillation counter. […]

Test [2] has as its system human umbilical vein endothelial cells (HUVECs). In words: HUVEC BrdU incorporation, VEGF stimulation. Format: cell-based. As to conditions: 20 ng/ml VEGF, 72 hrs; read-out: Inhibition of BrdU incorporation in HUVEC cells, VEGF stimulation (IC50). (In general: Dividing cells build labelled thymidine or BrdU into new DNA.)
Text: (§1) An assay to measure this effect involves measurement of the inhibition of bromo-deoxy uridine (BrdU) incorporation (evidence of DNA synthesis) in human umbilical vein endothelial cells (HUVECs).
(§2) HUVEC cells and EGM (Endothelial cell growth medium) were purchased from Clonetics (San Diego, Calif.). VEGF and bFGF were purchased from Genzyme. M199 medium (Gibco BRL) with BSA (Sigma) was used for cell culture in Type I collagen coated plates (Becton Dickinson). The degree of BrdU incorporation was measured using a commercial colorimetric ELISA assay from Boehringer Mannheim.
(§3) HUVECs were plated at a density of 2500 cells per well in M199 medium containing 5% FBS (Hyclone) in a Type-I Collagen coated plate. The plate was incubated at 37° C. overnight. The medium was removed by aspiration, and test compounds were added to each well in a volume of 0.1 ml per well in serum-free M199 medium. […] The plate was incubated for 30 min at 37° C. Another 0.1 ml of serum-free M199 medium containing BSA and VEGF (or bFGF) was added to give a final concentration of 0.1% BSA and 20 ng/ml VEGF (0.3 ng/ml bFGF). The plate was incubated at 37° C. for 72 hrs. BrdU was added to each well after the first 48 hrs to give a concentration of 10 micomolar. The calorimetric ELISA assay was performed according to manufacturer's instructions, with detection by absorbance reading at 450 nm.
For test [3] the test system is unchanged. Kind of test: HUVEC BrdU incorporation, bFGF stimulation. Format: cell-based. As to conditions: 0.3 ng/ml bFGF, 72 hrs; read-out: Inhibition of BrdU incorporation in HUVEC cells, BFGF Stimulation (IC50).
Text: as §1, §2, §3

On to `O=C1Nc2ccc3ncccc3c2/C1=C/Nc1ccc(CCO)cc1` [Example 32], for which the IC50 in test [1] is over 100 nM; in test [2] it was 10 to 500 nM; in test [3], 1100 to 5000 nM.
